18 compounds from PMC11901765, “Discovery of N-(2-Acetamidobenzo[d]thiazol-6-yl)-2-phenoxyacetamide Derivatives as Novel Potential BCR-ABL1 Inhibitors Through Structure-Based Virtual Screening” (Molecules, 2025) can be followed below.

Like-named read-outs stand apart in the source and are kept apart here.

Test [1] concerns K562 cells. The experiment in a line: Synergy study with asciminib (CCK-8, SynergyFinder 3.0, ZIP model). Type of test: cell-based. Here is the method: The drug combination effects were quantified as percentage inhibition of cell viability. The experimental data were analyzed using SynergyFinder 3.0, with a four-parameter logistic regression (LL4) model selected for curve fitting and data analysis. The Synergy Score based on the ZIP (Zero Interaction Potency) model is used to evaluate the synergistic effects of drug combinations.

For a further test, the system named is parental Ba/F3 cells. The experiment in a line: CCK-8 viability assay, parental Ba/F3 cells. Type of test: cell-based. Conditions: mean ± SD; for GI50: CCK8 kit; for IC50: Table 3. Here is the method:
(§1) Cell viability was assessed using the Cell Counting Kit-8 (CCK-8) assay. […] After 72 h of incubation, 10 μL of CCK-8 reagent was added to each well, and the plates were further incubated for 2–4 h. Absorbance was measured at 450 nm using a microplate reader. Dose-response curves were generated and analyzed using GraphPad Prism 8 (version 8.4.3.686).
A general note: Formazan colour is commonly taken as a measure of viable cells.

For the next test, the system named is Ba/F3 (BCR-ABL1) cells. The experiment in a line: CCK-8 viability assay, Ba/F3 (BCR-ABL1) cells. Format: cell-based. Conditions: for GI50: Mus musculus, BaF3, CCK8 kit; for GI50 / Ba/F3 (BCR-ABL1) Inhibition (%) / IC50: mean ± SD; for Ba/F3 (BCR-ABL1) Inhibition (%): measured at 10 μM; for IC50: Table 3. As to the method:
as §1

The subject of test [2] is K562 cells. The experiment in a line: CCK-8 viability assay, K562 cells. Conditions: 72 h; read-out: GI50 (IC50) K562 cells. Format: cell-based. Here is the method:
Cell viability was assessed using the Cell Counting Kit-8 (CCK-8) assay. Cells were seeded in 96-well plates at a density of 10,000 cells per well in RPMI 1640 medium. Test compounds were prepared by serially diluting stock solutions 3-fold in DMSO to generate an eight-point concentration gradient (100 μM to 0.045 μM), followed by addition to the cultured cells. After 72 h of incubation, 10 μL of CCK-8 reagent was added to each well, and the plates were further incubated for 2–4 h. Absorbance was measured at 450 nm using a microplate reader. Dose-response curves were generated and analyzed using GraphPad Prism 8 (version 8.4.3.686).

In a further test the test system is HL60. Description: CCK-8 viability assay, HL60 cells. Format: cell-based. As to the method: as §1
The subject of test [3] is Ba/F3 (BCR-ABL^T315I) cells. Description: CCK-8 viability assay, Ba/F3 (BCR-ABL^T315I) cells. Type of test: cell-based. The conditions noted are these: Table 3; mean ± SD. Here is the method:
as §1

The test system of another test is MV411. The experiment in a line: CCK-8 viability assay, MV411 cells. Type of test: cell-based. As to the method:
as §1

For test [4], the system named is BCR-ABL-dependent signaling (p-ABL1, p-STAT5, p-CRKL) in K562 cells. The experiment in a line: Western blot of BCR-ABL-dependent signaling. The conditions noted are these: 3.3 and 10 μM, 1 h. Format: cell-based. Here is the method: Western blot analysis was conducted following established protocols. K562 cells were treated with varying concentrations of the test compound for 60 min, followed by protein extraction using RIPA buffer. Protein quantification was performed using bicinchoninic acid assay, and 30–60 μg of protein samples were resolved by 10% sodium dodecyl sulfate-polyacrylamide gel electrophoresis before being transferred onto nitrocellulose membranes. Membranes were probed with primary antibodies overnight at 4 °C. Following incubation with horseradish peroxidase (HRP)-conjugated secondary antibodies (Thermo Scientific, Waltham, MA, USA), protein bands were detected using a chemiluminescent HRP substrate (Millipore Corporation, #WBKLS0500, Billerica, MA, USA) and imaged with a Syngene GeneGnome-XRQ-NPC imager (Synoptics, Britain). Quantitative analysis was performed by measuring band intensity using ImageJ (version 1.43) software. The following primary antibodies were used: c-Abl (ABclonal, #A0282, Woburn, MA, USA), phosphor-c-Abl (ABclonal, #AP0001), STAT5 (ABclonal, #A5029), phosphor-STAT5 (ABclonal, #AP0887), CRKL (ABclonal, #A11735), and phospho-CRKL (ABclonal, #AP0824).
(A western blot detects proteins with antibodies after separation by electrophoresis.)

In test [5] the test system is K562 cells. The experiment in a line: Apoptosis assay (Annexin V/PI flow cytometry). The conditions noted are these: 10m 10 μM, asciminib 5 μM, 48 or 72 h. On the technique in general: In flow cytometry, cells or beads pass a laser one at a time.
Description: Cell apoptosis was evaluated through Annexin V and propidium iodide (PI) dual staining using an Annexin V-FITC Apoptosis Detection Kit (Vazyme, #A211-02, Nanjing, China) following the manufacturer’s protocol.
[6] abbreviates: Table 3, mean ± SD, read-out: IC50 HL60.
Where [7] appears, read: Table 3, mean ± SD, read-out: IC50 MV411.

On to `Cc1ccc(NC(=O)c2ccc(CN3CCN(C)CC3)cc2)cc1Nc1nccc(-c2cccnc2)n1` [Imatinib, imatinib, reference compound], for which the “effect in combination with asciminib (in words)” value in the test on K562 cells [1] is recorded as “antagonistic effect”.

Take `O=C(COc1ccccc1)Nc1ccc2nc(NC(=O)c3ccccc3)sc2c1` [Compound A13]: the GI50 (in general, the concentration giving 50% growth inhibition) was greater than 100 µM in the test on parental Ba/F3 cells (Mus musculus, BaF3) and 19.5 ± 4.7 µM with Ba/F3 (BCR-ABL1) cells.

With “N-(2-Acetamidobenzo[d]thiazol-6-yl)-2-(3-fluorophenoxy)acetamide [Compound 10h]”, the “Ba/F3 (BCR-ABL1) Inhibition (%)” value in the test on Ba/F3 (BCR-ABL1) cells stood at 61 ± 5%.

For the compound “N-(2-Acetamidobenzo[d]thiazol-6-yl)-2-(2-fluorophenoxy)acetamide [Compound 10g]”, the “Ba/F3 (BCR-ABL1) Inhibition (%)” value in the test on Ba/F3 (BCR-ABL1) cells came out at 65 ± 3%.

For “N-(2-Acetamidobenzo[d]thiazol-6-yl)-2-phenoxyacetamide [Compound 10a]”, the “Ba/F3 (BCR-ABL1) Inhibition (%)” value with Ba/F3 (BCR-ABL1) cells is given as 52 ± 5%.

Regarding “N-(2-Acetamidobenzo[d]thiazol-6-yl)-2-(naphthalen-2-yloxy)acetamide [Compound 10f]”, the IC50 (commonly the concentration that gives 50% inhibition) in the test with K562 cells [2] was 2.7 µM; with parental Ba/F3 cells, greater than 100 µM; with HL60 (setting [6]), greater than 100 µM; in [3], greater than 100 µM; with Ba/F3 (BCR-ABL1) cells, 2.2 ± 0.5 µM; in the test on MV411 (setting [7]), greater than 100 µM. Also, the “Ba/F3 (BCR-ABL1) Inhibition (%)” value with Ba/F3 (BCR-ABL1) cells was 88 ± 2%.

As for `CS(=O)(=O)Nc1nc2ccc(NC(=O)COc3ccccc3)cc2s1` [Compound A14], the GI50 in the test on parental Ba/F3 cells (Mus musculus, BaF3) amounted to 37.6 ± 5.7 µM; in the test with Ba/F3 (BCR-ABL1) cells, 1.2 ± 0.2 µM.

Regarding “N-(2-Acetamidobenzo[d]thiazol-6-yl)-2-(2-chlorophenoxy)acetamide [Compound 10j]”, in the test on Ba/F3 (BCR-ABL1) cells, the “Ba/F3 (BCR-ABL1) Inhibition (%)” value is recorded as 68 ± 2%.

On to “N-(2-Acetamidobenzo[d]thiazol-6-yl)-2-(4-chlorophenoxy)acetamide [Compound 10l]”, for which the “Ba/F3 (BCR-ABL1) Inhibition (%)” value with Ba/F3 (BCR-ABL1) cells is on record as 71 ± 4%.

With “N-(2-Acetamidobenzo[d]thiazol-6-yl)-2-(4-fluorophenoxy)acetamide [Compound 10i]”, in the test on Ba/F3 (BCR-ABL1) cells, the “Ba/F3 (BCR-ABL1) Inhibition (%)” value stood at 58 ± 2%.

Take `CCC(=O)Nc1nc2ccc(NC(=O)COc3ccc(Cl)cc3)cc2s1` [Compound A8]: the GI50 in the test with parental Ba/F3 cells (Mus musculus, BaF3) is greater than 100 µM; in the test with Ba/F3 (BCR-ABL1) cells, 6.4 ± 1.6 µM. For the same compound, in the test on Ba/F3 (BCR-ABL1) cells (10 μM), the “inhibition of Ba/F3 (BCR-ABL1) cells (in words)” value is “showed inhibition potency”.

Take “N-(2-Acetamidobenzo[d]thiazol-6-yl)-2-(m-tolyloxy)acetamide [Compound 10t]”: the “Ba/F3 (BCR-ABL1) Inhibition (%)” value with Ba/F3 (BCR-ABL1) cells was 28 ± 5%.

As for `Cc1ccc(S(=O)(=O)Nc2nc3ccc(NC(=O)COc4ccccc4)cc3s2)cc1` [Compound A15], the GI50 is 42.9 ± 10.4 µM with parental Ba/F3 cells (Mus musculus, BaF3) and 3.9 ± 0.5 µM in the test on Ba/F3 (BCR-ABL1) cells.

On to `CCC(=O)Nc1nc2ccc(NC(=O)COc3ccccc3)cc2s1` [Compound A12], for which the concentration for 50% growth inhibition (GI50) in the test with parental Ba/F3 cells (Mus musculus, BaF3) is greater than 100 µM; in the test on Ba/F3 (BCR-ABL1) cells, 10.7 ± 2.6 µM.

As to “N-(2-Acetamidobenzo[d]thiazol-6-yl)-2-(3,4-dichlorophenoxy)acetamide [Compound 10m]”, the IC50 in the test with K562 cells [2] is 0.98 µM; in the test with parental Ba/F3 cells, greater than 100 µM; with HL60 (setting [6]), 54.2 ± 5.5 µM; in [3], 25.2 ± 1.1 µM; with Ba/F3 (BCR-ABL1) cells, 0.63 ± 0.1 µM; in the test on MV411 (setting [7]) it was greater than 100 µM. Also, the “inhibition of BCR-ABL-dependent signaling pathway (in words)” value in [4] was “potently inhibited”. Moreover, the “Ba/F3 (BCR-ABL1) Inhibition (%)” value in the test with Ba/F3 (BCR-ABL1) cells is listed as 93 ± 5%. For the same compound, in the test on K562 cells [1], the “effect in combination with asciminib (in words)” value is “powerful synergistic activity”. Moreover, the “apoptosis induction (in words)” value in the test on K562 cells [5] is recorded as “significantly induced apoptosis”.

Regarding “N-(2-Acetamidobenzo[d]thiazol-6-yl)-2-(3-chlorophenoxy)acetamide [Compound 10k]”, the “Ba/F3 (BCR-ABL1) Inhibition (%)” value in the test on Ba/F3 (BCR-ABL1) cells stood at 60 ± 6%.

Take “N-(2-Acetamidobenzo[d]thiazol-6-yl)-2-(o-tolyloxy)acetamide [Compound 10s]”: the “Ba/F3 (BCR-ABL1) Inhibition (%)” value in the test with Ba/F3 (BCR-ABL1) cells stood at 22 ± 2%.

Regarding `O=C(Nc1ccc(OC(F)(F)Cl)cc1)c1cnc(N2CC[C@@H](O)C2)c(-c2cc[nH]n2)c1` [Asciminib, reference compound], the GI50 in the test on parental Ba/F3 cells (Mus musculus, BaF3) is greater than 100 µM. The IC50 in the test on parental Ba/F3 cells (Mus musculus, BaF3) is greater than 100 µM; in the test on HL60 (Homo sapiens, HL-60, read-out: IC50 HL60) it was greater than 100 µM; in the test on MV411 (Homo sapiens, MV4-11, read-out: IC50 MV411) it was greater than 100 µM. The “apoptosis induction (in words)” value with K562 cells [5] was “significantly induced apoptosis”.
